13 molecules from PubChem BioAssay (NCI) can be followed below.

Among the test systems are A549 NSCLC; NCI-H226 lung; MCF7 breast; CAKI-1 renal; EKVX NSCLC; NCI-H460 lung; SW-620 colon; DU-145 prostate; PC-3 prostate; HCT-116 colon.
Holding throughout (assay): DTP human tumour cell line panel, 48 h

The structures appear in SMILES notation. Values joined by “and” are separate entries in the source; they are usually repeats but may differ in a detail not shown here. Identical values can stand only once.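 Interpolation was linear, between the two tested concentrations surrounding the appropriate level; five concentrations were tested over 48 hours in 96-well plates. GI50: concentration for 50% inhibition of growth. TGI denotes the concentration required for complete inhibition of growth.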

What is called TGI is the concentration at which net growth stops. High values mean less potent growth arrest, low ones more potent growth arrest. Turning to `O=C(O)C(Cc1ccccc1)NCc1c(O)ccc2c(-c3ccccc3)cc(=O)oc12` (stereo not given), the TGI in the assay with A549 NSCLC, in the assay on NCI-H226 lung, in the assay with MCF7 breast, with CAKI-1 renal, in the assay on EKVX NSCLC and in the assay with NCI-H460 lung was more than 100 µM throughout. In addition, the TGI in the assay on SW-620 colon, with DU-145 prostate, in the assay with PC-3 prostate and in the assay with HCT-116 colon was more than 100 µM throughout.
Consider `C=C(C)C1CC(=O)C(C)=C(O)C1` (stereo not given), for which the total growth inhibition concentration (TGI) with A549 NSCLC, in the assay with NCI-H226 lung, with MCF7 breast, with CAKI-1 renal, in the assay with EKVX NSCLC and with NCI-H460 lung was more than 100 µM in each case. Moreover, the TGI with SW-620 colon, in the assay with DU-145 prostate, in the assay with PC-3 prostate and with HCT-116 colon was more than 100 µM in each case.
For `Cc1nc(NC(C)(CO)CO)nc(N/N=C/c2ccc(Cl)cc2)c1C(=O)Nc1ccc(Cl)cc1`, the TGI in the assay with A549 NSCLC, in the assay on NCI-H226 lung, in the assay on MCF7 breast, in the assay with CAKI-1 renal, in the assay on EKVX NSCLC and in the assay with NCI-H460 lung was more than 100 µM throughout. For the same molecule, the TGI in the assay on SW-620 colon, with DU-145 prostate, in the assay on PC-3 prostate and in the assay with HCT-116 colon was more than 100 µM each time.
Consider `Clc1ccc2c(NCCCCCCNc3ccnc4cc(Cl)ccc34)ccnc2c1`, for which the TGI was found to be 20.7 µM with A549 NSCLC; 25.3 µM in the assay on NCI-H226 lung; 7.27 µM with MCF7 breast; 24.1 µM in the assay on CAKI-1 renal; 25.9 µM in the assay with EKVX NSCLC; 6.3 µM with NCI-H460 lung. The TGI in the assay with SW-620 colon came to 3.78 µM; with DU-145 prostate, 14.1 µM; with PC-3 prostate, 18.1 µM; with HCT-116 colon, 3.85 µM.
As to `COC(=O)c1sc(=O)sc1SCc1cccc(CSc2sc(=O)sc2C(=O)OC)c1`, the TGI in the assay on A549 NSCLC was more than 100 µM; in the assay on NCI-H226 lung, more than 100 µM; in the assay with MCF7 breast, more than 100 µM; with CAKI-1 renal it was 93.5 µM; in the assay on EKVX NSCLC, more than 100 µM; in the assay with NCI-H460 lung, more than 100 µM. Moreover, the total growth inhibition concentration (TGI) with SW-620 colon, in the assay with DU-145 prostate, with PC-3 prostate and with HCT-116 colon was more than 100 µM throughout.
On to `C[n+]1cccc2ccc3cccnc3c21`, for which the concentration for total growth inhibition (TGI) is more than 100 µM with A549 NSCLC; 70 µM with NCI-H226 lung; more than 100 µM in the assay on MCF7 breast; more than 100 µM with CAKI-1 renal; more than 100 µM with EKVX NSCLC; more than 100 µM with NCI-H460 lung. Also, the TGI in the assay on SW-620 colon, in the assay with DU-145 prostate, with PC-3 prostate and with HCT-116 colon was more than 100 µM in each case.
Take `CCC1(O)CC(CCN(Cc2ccccc2)C(=O)OCc2ccccc2)C(OCc2ccccc2)C1O` (stereo not given): the TGI in the assay with A549 NSCLC was 27.1 µM; in the assay with NCI-H226 lung it was 25.3 µM; in the assay on MCF7 breast it was 28.8 µM; in the assay with CAKI-1 renal, 65.7 µM; in the assay with EKVX NSCLC, 30.9 µM; in the assay on NCI-H460 lung it was 31.3 µM. In addition, the TGI in the assay with SW-620 colon is more than 100 µM; in the assay with DU-145 prostate, 36.3 µM; in the assay on PC-3 prostate, 23.2 µM; in the assay on HCT-116 colon it was 48.8 µM.
`COc1cccc2c1C(=O)c1c(O)c3c(c(O)c1C2=O)C[C@@](O)(C(C)=O)CC3OC1CC(OC2CC(N)C(O)C(C)O2)C(O)C(C)O1` (stereo not given in full): the TGI in the assay on A549 NSCLC is more than 100 µM; with NCI-H226 lung it was more than 100 µM; with MCF7 breast, more than 59.6 µM; in the assay with CAKI-1 renal it was more than 100 µM; in the assay with EKVX NSCLC, more than 100 µM; in the assay on NCI-H460 lung, more than 100 µM. In addition, the TGI with SW-620 colon, in the assay on DU-145 prostate, in the assay on PC-3 prostate and with HCT-116 colon was more than 100 µM in each case.
Usually GI50 stands for the concentration at which growth is held to half of that of the control. Consider `COC(=O)C1OC(O[C@H]2CC[C@]3(C)[C@H]4CC=C5[C@@H]6CC(C)(C)CC[C@]6(C(=O)OC6OCC(O)C(O)C6OC6OC(C)C(OC7OCC(O)C(O)C7O)C(O)C6O)[C@H](O)C[C@@]5(C)[C@]4(C)CC[C@H]3C2(C)C)C(O)C(O)C1O` (stereo not given in full), for which the TGI is 11.8 µM and 14.6 µM with A549 NSCLC; 13.9 µM and 24.8 µM in the assay with NCI-H226 lung; 10.3 µM and 4.43 µM in the assay on MCF7 breast; 11.2 µM and 14.9 µM in the assay on CAKI-1 renal; 8.04 µM and 11.1 µM in the assay with EKVX NSCLC; > 100 µM and 33.4 µM in the assay with NCI-H460 lung. For the same molecule, the TGI was > 57 µM and 27.2 µM with SW-620 colon; > 57.7 µM and 26.5 µM with DU-145 prostate; 16.9 µM and 16.3 µM in the assay on PC-3 prostate; > 100 µM and 17.4 µM with HCT-116 colon. The GI50 in the assay on NCI-H460 lung was 34 µM and 16.9 µM.
As for `CC(=O)CC1(CBr)Nc2ccc([N+](=O)[O-])cc2NC1=O` (stereo not given), the TGI in the assay with A549 NSCLC, with NCI-H226 lung, in the assay with MCF7 breast, in the assay on CAKI-1 renal, in the assay with EKVX NSCLC and with NCI-H460 lung was more than 100 µM each time. Moreover, the TGI in the assay on SW-620 colon, in the assay on DU-145 prostate, in the assay on PC-3 prostate and in the assay on HCT-116 colon was more than 100 µM each time.
With `N#CCCC(C=O)(CCC#N)CCC#N`, the TGI in the assay on A549 NSCLC, with NCI-H226 lung, with MCF7 breast, in the assay with CAKI-1 renal, in the assay with EKVX NSCLC and in the assay on NCI-H460 lung was more than 100 µM throughout. Also, the TGI in the assay with SW-620 colon, with DU-145 prostate, with PC-3 prostate and in the assay with HCT-116 colon was more than 100 µM throughout.
Take `O=c1c2cc(Br)cc(Br)c2[nH]c(=S)n1-c1ccc(N=Nc2ccc(O)c3cccnc23)cc1`: the TGI was more than 100 µM in the assay on A549 NSCLC; more than 100 µM with NCI-H226 lung; 25.9 µM in the assay with MCF7 breast; more than 100 µM in the assay on CAKI-1 renal; more than 100 µM in the assay on EKVX NSCLC; more than 100 µM in the assay on SW-620 colon. The TGI in the assay on DU-145 prostate, in the assay on PC-3 prostate and with HCT-116 colon was more than 100 µM each time.
On to `O=[N+]([O-])c1ccc(-n2nc3ccc4nonc4c3n2)cc1`, for which the TGI was more than 100 µM in the assay on A549 NSCLC; 65.3 µM in the assay on NCI-H226 lung; more than 100 µM in the assay on MCF7 breast; 73.7 µM in the assay on CAKI-1 renal; more than 100 µM in the assay on EKVX NSCLC; more than 100 µM with NCI-H460 lung. The TGI with SW-620 colon, in the assay on DU-145 prostate, with PC-3 prostate and in the assay with HCT-116 colon was more than 100 µM in each case.
